Earlier results on one compound are cited in patent publication US20060210492A1 (priority 2005, published 2006).

As to `CO[C@H]1/C=C/O[C@@]2(C)Oc3c(C)c(O)c4c(O)c(c5c(nc6cc(C)ccn65)c4c3C2=O)NC(=O)/C(C)=C\C=C\[C@H](C)[C@H](O)[C@@H](C)[C@@H](O)[C@@H](C)[C@H](OC(C)=O)[C@@H]1C` [rifaximin, (2S,16Z,18E,20S,21S,22R,23R,24R,25S,26S,27S,28E)-5,6,21,23,25-pentahydroxy-27-methoxy-2,4,11,16,20,22,24,26-octamethyl-2,7-(epoxypentadeca-[1,11,13]trienimino)benzofuro[4,5-e]pyrido[1,2-a]-benzimidazole-1,15(2H)-dione,25-acetate], the “solubility in water” value was “practically insoluble”.
